The subject of the test is BDF1 mice, P388 leukemia ip, median survival T/C. Put plainly: NCI In Vivo Anticancer Drug Screen. Data for tumor model P388 Leukemia (intraperitoneal) in B6D2F1 (BDF1) mice. The following applies: endpoint: median survival time, higher = longer survival. The procedure, abridged:
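Compound-treated tumour-bearing mice were compared with vehicle-treated controls. Survival was recorded, and the value is the treated-group measurement divided by the control-group measurement (T/C).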

Setting [1] is: dose: 50.0 mg/kg/injection, schedule: Q01DX009 (ip), vehicle: saline with Tween-80.
Setting [2] is: dose: 100.0 mg/kg/injection, schedule: Q01DX009 (ip), vehicle: saline with Tween-80.
Where [3] appears, read: dose: 200.0 mg/kg/injection, schedule: Q01DX009 (ip), vehicle: saline with Tween-80.
The mark [4] stands for this setting: dose: 100.0 mg/kg/injection, schedule: Q04DX003 (ip), vehicle: saline with Tween-80.
Setting [5] is: dose: 200.0 mg/kg/injection, schedule: Q04DX003 (ip), vehicle: saline with Tween-80.
The mark [6] stands for this setting: dose: 50.0 mg/kg/injection, schedule: Q01DX001 (ip), vehicle: saline with Tween-80.
Setting [7] is: dose: 50.0 mg/kg/injection, schedule: Q01DX009 (ip), vehicle: Klucel (hydroxypropylcellulose) (HPC).
Where [8] appears, read: dose: 100.0 mg/kg/injection, schedule: Q01DX009 (ip), vehicle: Klucel (hydroxypropylcellulose) (HPC).
[9] abbreviates: dose: 100.0 mg/kg/injection, schedule: Q04DX003 (ip), vehicle: Klucel (hydroxypropylcellulose) (HPC).
[10] abbreviates: dose: 200.0 mg/kg/injection, schedule: Q01DX009 (ip), vehicle: Klucel (hydroxypropylcellulose) (HPC).
Where [11] appears, read: dose: 200.0 mg/kg/injection, schedule: Q04DX003 (ip), vehicle: Klucel (hydroxypropylcellulose) (HPC).
Where [12] appears, read: dose: 400.0 mg/kg/injection, schedule: Q04DX003 (ip), vehicle: Klucel (hydroxypropylcellulose) (HPC).
[13] abbreviates: dose: 50.0 mg/kg/injection, schedule: Q01DX001 (ip), vehicle: saline.
Setting [14] is: dose: 100.0 mg/kg/injection, schedule: Q01DX001 (ip), vehicle: saline.
Setting [15] is: dose: 200.0 mg/kg/injection, schedule: Q01DX001 (ip), vehicle: saline.
Where [16] appears, read: dose: 50.0 mg/kg/injection, schedule: Q01DX009 (ip), vehicle: saline.
Setting [17] is: dose: 100.0 mg/kg/injection, schedule: Q01DX009 (ip), vehicle: saline.

Where “and” joins values, the source holds several entries; their conditions need not be identical. Equal entries are not always repeated. Toxic doses and inconclusive results are not listed.

From PubChem BioAssay AID328 (DTP/NCI, 2004) come the findings set out here.

`O=C(Nc1ccccc1)OCCBr`: the T/C under setting [1] is 99 % of control, the T/C under setting [2] was 107 % of control and the T/C under setting [3] is 107 % of control.

As to `COc1ccc(Nc2c3ccccc3nc3ccccc23)cc1`, the T/C under setting [1] is 208 % of control.

Regarding `CC(C)(CO)COC(=O)NC1=C(N2CC2)C(=O)C(NC(=O)OCC(C)(C)CO)=C(N2CC2)C1=O`, the T/C was 151 % of control and 157 % of control (dose: 0.75 mg/kg/injection, schedule: Q01DX009 (ip), vehicle: water); 159 % of control and 178 % of control (dose: 1.5 mg/kg/injection, schedule: Q01DX009 (ip), vehicle: water); 181 % of control and 200 % of control (dose: 3.0 mg/kg/injection, schedule: Q01DX009 (ip), vehicle: water); 231 % of control and 205 % of control (dose: 6.0 mg/kg/injection, schedule: Q01DX009 (ip), vehicle: water); 232 % of control and 312 % of control (dose: 12.0 mg/kg/injection, schedule: Q01DX009 (ip), vehicle: water).

`O=C(/C=C/c1cccc(Br)c1)NCC(O)CO` (stereo not given): the T/C is, setting by setting: under setting [3], 95 % of control; (dose: 400.0 mg/kg/injection, schedule: Q01DX009 (ip), vehicle: saline with Tween-80) 87 % of control.

Consider `CCN1CCCC(Nc2nc(Nc3cc(Cl)cc(Cl)c3)nc3cc(Cl)ccc23)C1` (stereo not given), for which the T/C runs as follows: (dose: 37.5 mg/kg/injection, schedule: Q01DX001 (ip), vehicle: saline sonified) 120 % of control; (dose: 75.0 mg/kg/injection, schedule: Q01DX001 (ip), vehicle: saline sonified) 115 % of control; (dose: 150.0 mg/kg/injection, schedule: Q01DX001 (ip), vehicle: saline sonified) 120 % of control.

Take `CC1=NN(CCO)C(=O)C1`: the T/C by setting is: under setting [1], 95 % of control; under setting [2], 92 % of control; under setting [3], 93 % of control.

Take `COc1ccc2cc(Br)ccc2c1`: the T/C runs as follows: under setting [4], 95 % of control; under setting [5], 109 % of control; (dose: 400.0 mg/kg/injection, schedule: Q04DX003 (ip), vehicle: saline with Tween-80) 100 % of control.

For the compound `CCCC(C)(C)c1cc(C(C)C)cc(C(C)(C)CCC)c1O`, the T/C is, setting by setting: (dose: 12.5 mg/kg/injection, schedule: Q01DX009 (ip), vehicle: other) 112 % of control; (dose: 25.0 mg/kg/injection, schedule: Q01DX009 (ip), vehicle: other) 118 % of control; (dose: 50.0 mg/kg/injection, schedule: Q01DX009 (ip), vehicle: other) 97 % of control.

As for `Cc1ccc(C(=S)NC(=O)Nc2ccccc2)cc1`, the T/C was 93 % of control under setting [6]; 92 % of control (dose: 100.0 mg/kg/injection, schedule: Q01DX001 (ip), vehicle: saline with Tween-80); 90 % of control (dose: 200.0 mg/kg/injection, schedule: Q01DX001 (ip), vehicle: saline with Tween-80).

For the compound `O=C(/C(=C\c1ccccc1)CN1CCOCC1)c1ccc(Br)cc1`, the T/C (dose: 25.0 mg/kg/injection, schedule: Q01DX009 (ip), vehicle: Klucel (hydroxypropylcellulose) (HPC)) is 104 % of control; the T/C (dose: 37.5 mg/kg/injection, schedule: Q04DX003 (ip), vehicle: Klucel (hydroxypropylcellulose) (HPC)) is 108 % of control; the T/C under setting [7] was 108 % of control; the T/C (dose: 75.0 mg/kg/injection, schedule: Q04DX003 (ip), vehicle: Klucel (hydroxypropylcellulose) (HPC)) is 104 % of control; the T/C (dose: 150.0 mg/kg/injection, schedule: Q04DX003 (ip), vehicle: Klucel (hydroxypropylcellulose) (HPC)) is 108 % of control.

As for `CCN(CC)CC(Cl)CN(CC)CC`, the T/C is, setting by setting: (dose: 50.0 mg/kg/injection, schedule: Q04DX003 (ip), vehicle: saline with Tween-80) 110 % of control; under setting [4], 105 % of control; under setting [5], 100 % of control.

`CCCCC(CC)CCC(O)CC(C)C` (stereo not given): the T/C under setting [7] was 100 % of control; the T/C under setting [8] is 95 % of control; the T/C under setting [9] was 104 % of control; the T/C under setting [10] was 100 % of control; the T/C under setting [11] is 100 % of control; the T/C under setting [12] is 100 % of control.

For the compound `NOCc1c(F)c(F)c(F)c(F)c1F`, the T/C reads like this: under setting [13], 113 % of control; under setting [14], 104 % of control; under setting [15], 95 % of control.

In the case of `O=C(Oc1ccc(-c2ccc(Br)cc2)cc1)c1ccco1`, the T/C was 90 % of control under setting [1] and 90 % of control under setting [2].

As for `C=C(C)C12OC3(c4ccccc4)OC1C1C4OC4(CO)C(O)C4(O)C(=O)C(C)=CC4C1(O3)C(C)C2OC(=O)/C=C/C=C/C=C/CCC` (stereo not given), the T/C (dose: 6.3 micrograms/kg/injection, schedule: Q## X009 (ip), vehicle: saline with Tween-80) was 109 % of control; the T/C (dose: 12.5 micrograms/kg/injection, schedule: Q## X009 (ip), vehicle: saline with Tween-80) is 106 % of control; the T/C (dose: 25.0 micrograms/kg/injection, schedule: Q## X009 (ip), vehicle: saline with Tween-80) is 109 % of control; the T/C (dose: 50.0 micrograms/kg/injection, schedule: Q## X009 (ip), vehicle: saline with Tween-80) is 106 % of control; the T/C (dose: 100.0 micrograms/kg/injection, schedule: Q## X009 (ip), vehicle: saline with Tween-80) is 168 % of control.

Consider `CCOC(=O)N(C)C1CCC1NC` (stereo not given), for which the T/C reads like this: under setting [13], 100 % of control; under setting [14], 95 % of control; under setting [15], 95 % of control.

For `O=C(O)c1cc2ccccc2c2cc(Br)ccc12`, the T/C was 100 % of control under setting [4] and 104 % of control under setting [5].

Take `CS(=O)(=O)OC[C@@H](O)[C@@H](O)COS(C)(=O)=O`: the T/C is, setting by setting: under setting [16], 116 % of control; under setting [17], 107 % of control.

Turning to `O=C(c1ccccc1)c1cccc(Cl)c1`, the T/C reads like this: (dose: 50.0 mg/kg/injection, schedule: Q04DX003 (ip), vehicle: Klucel (hydroxypropylcellulose) (HPC)) 104 % of control; under setting [9], 90 % of control; under setting [11], 104 % of control.

As for `Nc1ccc2ccccc2c1N=Nc1ccccc1`, the T/C is 109 % of control under setting [9] and 123 % of control under setting [11].

For `BrC1C2CCC(CC2)C1Br` (stereo not given), the T/C under setting [8] is 100 % of control; the T/C under setting [9] is 95 % of control; the T/C under setting [10] is 104 % of control; the T/C under setting [11] was 95 % of control; the T/C under setting [12] is 91 % of control.

As for `O=C1C(Cl)=C(Cl)C(=O)C(/C=C/N2CCOCC2)=C1Cl`, the T/C is, setting by setting: (dose: 6.25 mg/kg/injection, schedule: Q01DX001 (ip), vehicle: saline with Tween-80) 109 % of control; (dose: 12.5 mg/kg/injection, schedule: Q01DX001 (ip), vehicle: saline with Tween-80) 117 % of control; (dose: 25.0 mg/kg/injection, schedule: Q01DX001 (ip), vehicle: saline with Tween-80) 104 % of control; under setting [6], 113 % of control.

Consider `C=CC(=O)c1c(O)cc(O)c2c1C(C)C(=O)O2` (stereo not given), for which the T/C (dose: 75.0 mg/kg/injection, schedule: Q01DX009 (ip), vehicle: Klucel (hydroxypropylcellulose) (HPC)) is 113 % of control.

As to `COc1cc(C(C2=C(O)c3ccccc3C(=O)C2=O)C2=C(O)c3ccccc3C(=O)C2=O)cc(Br)c1O`, the T/C (dose: 33.0 mg/kg/injection, schedule: Q01DX001 (ip), vehicle: saline) is 95 % of control; the T/C under setting [13] was 104 % of control; the T/C (dose: 75.0 mg/kg/injection, schedule: Q01DX001 (ip), vehicle: saline) is 100 % of control; the T/C under setting [14] was 115 % of control; the T/C under setting [15] was 110 % of control.

`CN1CCC(C(O)c2ccccc2)CC1` (stereo not given): the T/C is 105 % of control (dose: 100.0 mg/kg/injection, schedule: Q01DX001 (ip), vehicle: Klucel (hydroxypropylcellulose) (HPC)) and 105 % of control (dose: 200.0 mg/kg/injection, schedule: Q01DX001 (ip), vehicle: Klucel (hydroxypropylcellulose) (HPC)).

With `NN1N=Nc2cccc3cccc1c23`, the T/C runs as follows: under setting [16], 105 % of control; under setting [17], 110 % of control; (dose: 110.0 mg/kg/injection, schedule: Q04DX003 (ip), vehicle: saline) 100 % of control; (dose: 170.0 mg/kg/injection, schedule: Q04DX003 (ip), vehicle: saline) 95 % of control; (dose: 200.0 mg/kg/injection, schedule: Q01DX009 (ip), vehicle: saline) 110 % of control; (dose: 255.0 mg/kg/injection, schedule: Q04DX003 (ip), vehicle: saline) 95 % of control.
